Results taken from patent US4313943A, “7-Chloro-2,3-dihydro-5-phenyl-1-propargyl-1H-1,4-benzodiazepine-2-one, and a pharmaceutical composition thereof” (priority 1972, dated 1982).
Several values for one entry are separate records, joined by “and”; a condition that tells them apart may be missing. Equal entries are not always repeated.

Assays:
Type in all cases: in vivo
[1] = Conditioned avoidance response (shuttle box); details: for Number of Conditioned Avoidance Responses: CMC 1% 16.7 ± 0.3
Protocol: Conditioned avoidance response by trained animals in a conventional shuttle box procedure was determined after oral administration of Compounds 1 and 4.

[2] = Emotional conditioning response (CER) in rats (Brady, Skinner box)
Excerpt: The method utilized that was published by Brady (1956) using a Skinner Box and a combination of a sound, a light and an electrical shock to produce anxiety in the test animals.
The more an animal is anxious, the less important is the score. When a test compound is a powerful anxiolytic, the value of the score is proportional to the dosage.

[3] = Reduction in motor activity between 60 and 90 minutes; details: for Reduction in Motor Activity Between 60 and 90 Minutes: significance NS (comp. 1), 0.002 (comp. 4)
[4] = Spontaneous mobility (Svenson and Thieme); details: po; read-out: oral ED50 (depressing spontaneous mobility)
Protocol: Spontaneous mobility in test animals was determined by the Svenson and Thieme procedure as published in Psychopharmacologia, Vol. 14, 1969, pages 157 et seq.

[5] = Effect on muscular relaxation in mice (30° inclined screen, Randall)
Protocol: The method utilized was the procedure described by Randall (1961) using a 30° inclined screen.

[6] = Aggressive behavior elicited by foot shock; details: oral
Excerpt: The aggressive behavior of test animals was elicited by a conventional foot shock procedure after administration of Compounds 1 and 4.

[7] = tested on: posterior amygdaloid complex; test: Amygdaloid after-discharge (stimulation of posterior amygdaloid complex); details: 7.5 mg/kg intragastric; for Duration of Amygdaloid After-Discharge: individual animals
Protocol: The test animals for this study were also prepared according to the technique described by Monnier and Gangloff (infra B, page 30) and the animals were kept in restraint cages in a relatively soundproof room.
The activity of test compounds 1 and 4 was assessed in identical groups of test animals for each compound, with identical numbers of animals for hippocampal after-discharges and for amygdaloid after-discharges. A dose of 7.5 mg/kg of each test compound was adminstered by the intragastric route. In each animal, after-discharges were triggered every 45 minutes after the administration of a test compound.
The stimulation consisted of a series of waves with a duration of 3 m sec., delivered at a frequency of 40 c/sec., with 5 seconds as the total duration of the stimulation. The shocks were delivered by a Neurovar neurostimulator (Alvar Electronic), coupled to a CRC cathode oscilloscope (type OC 343). Cerebral electric activity was recorded by REEGA MINI HUIT electroencephalograph (Alvar Electronic).

C#CCN1C(=O)CN=C(c2ccccc2Cl)c2cc(Cl)ccc21 [Compound 4, 7-chloro-2,3-dihydro-5-(2-chlorophenyl)-1-propargyl-1,H-1,4-benzodiazepine-2-one]
% Decrease (conditioned avoidance responses) ([1]; 5 mg/kg oral): -44% | Number of Conditioned Avoidance Responses ([1]; 5 mg/kg oral): 9.2 ± 1.4 | % Decrease (conditioned avoidance responses) ([1]; 10 mg/kg oral): -85% | Number of Conditioned Avoidance Responses ([1]; 10 mg/kg oral): 2.5 ± 1.5 | Number of Responses, After - CER ([2]; 1.25 mg/kg/os): 86.43 ± 22.13 | Number of Responses, Before - CER ([2]; 1.25 mg/kg/os): 81.28 ± 16.17 | Number of Responses, CER ([2]; 1.25 mg/kg/os): 26.25 ± 4.57 | Number of Responses, After - CER ([2]; 2.5 mg/kg/os): 79.75 ± 15.24 | Number of Responses, Before - CER ([2]; 2.5 mg/kg/os): 66.75 ± 11.80 | Number of Responses, CER ([2]; 2.5 mg/kg/os): 31.12 ± 6.54 | Number of Responses, After - CER ([2]; 5 mg/kg/os): 79.00 ± 20.03 | Number of Responses, Before - CER ([2]; 5 mg/kg/os): 65.00 ± 14.89 | Number of Responses, CER ([2]; 5 mg/kg/os): 38.37 ± 8.76 | Reduction in Motor Activity Between 60 and 90 Minutes ([3]; 1 mg/kg): -69% | Reduction in Motor Activity Between 60 and 90 Minutes ([3]; 3 mg/kg): -82% | changes in motor activity / voluntary motility ([3]; in vivo): reduces voluntary motility | ED50 [4]: 20.1 mg/kg | % Relaxed Animals ([5]; 2 mg/kg/os): 40% | % Relaxed Animals ([5]; 8 mg/kg/os): 60% | % Relaxed Animals ([5]; 32 mg/kg/os): 80% | Potency Against Comp. 1 ([5]; C.L. (1.67-18.80), X^2 parallelism 2.03): 5.60 | ED50 ([5]; Mus musculus, po, muscular relaxation, read-out: ED50 (and C.L.)): 3.93 mg/kg | ED50 [6]: 2.7 mg/kg | effect on amygdaloid after-discharge [7]: lasting inhibitory effect | Duration of Amygdaloid After-Discharge ([7]; 45 Mins.): 29 s and 43 s and 30 s and 35 s | Duration of Amygdaloid After-Discharge ([7]; 90 Mins.): 32 s and 46 s and 33 s and 40 s and 16 s | Duration of Amygdaloid After-Discharge ([7]; 135 Mins.): 35 s and 27 s and 40 s and 26 s | Duration of Amygdaloid After-Discharge ([7]; 180 Mins.): 33 s and 29 s and 48 s | Duration of Amygdaloid After-Discharge ([7]; 225 Mins.): 37 s and 35 s and 34 s and 41 s | Duration of Amygdaloid After-Discharge ([7]; 270 Mins.): 38 s and 42 s and 37 s and 39 s and 50 s
